Assay results as given in paper PMC9013689, “Development of reconstructed intestinal micronucleus cytome (RICyt) assay in 3D human gut model for genotoxicity assessment of orally ingested substances” (Archives of Toxicology, 2022).
Several values for one entry are separate records, joined by “and”; a condition that tells them apart may be missing. Equal values may be shown once. Where a name gives a salt, the structure may show the parent alone. Read-outs that look alike come from different tables or passages of the source.

How the values were obtained:
3D EpiIntestinal™ tissue [1] = experiment: Cytokinesis-blocked micronucleus analysis (CBMN) in EpiIntestinal™ tissue; assay type: cell-based, human; details: 6 μg/ml, apical and basolateral, 10 days
Method: The CBMN assay was conducted according to a previously published procedure (Fenech and Morley [1985b]). Briefly, cytochalasin B (5474, Tocris Bioscience, Bristol, UK, 6 μg/ml) was applied to the 3D EpiIntestinal™ in vitro tissues every other day, to the apical and to the basolateral compartments. […] The cell suspension was stored in fixative at 4 °C overnight, stained with acridine orange (1:100 dilution in 1 × PBS, A1301, Invitrogen; Thermo Fisher Scientific, Waltham, MA) and scored under fluorescence microscopy (Zeiss Axioimager, equipped with triple band excitation fluorescence filter set: DAPI, FITC and Texas red). Scoring was performed following the criteria developed by Fenech et al. (Fenech et al. [2003], [2007]). One thousand total cells per microtissue were scored to determine the percentage of cells with one (mononucleated) or two nuclei (binucleated). The results were generated from three independent experiments. Each experiment consisted of a single microtissue per dose.

3D EpiIntestinal™ tissue [2] = experiment: Reconstructed intestine micronucleus cytome (RICyt) assay
Text: EpiIntestinal™ tissue (SMI-200-FT v2.0) was purchased from MatTek Corporation® (Ashland, MA). The EpiIntestinal™ construct is a differentiated 3D tissue model that consists of intestinal villi and crypts topology resembling the normal human small intestine. […] The mature tissues are shipped sealed in 24-well agar-plugged plates to the designated laboratory (in this instance, Singapore). Upon receipt, the tissues are revived overnight in fresh SMI-100-MM before use in assays.
(§1) Test compound stock solutions were prepared in DMSO (D161802, Sigma Aldrich, St Louis, MO). For the 3D tissues, dilutions were made in complete culture media yielding ≤ 0.1% DMSO final concentration. Media containing 0.1% DMSO (i.e. without test article) were applied to tissues to serve as the vehicle control. All 3D tissues were treated apically every alternate day (from day 0–6) and daily (from day 7–9), while basolateral wells contain untreated culture media to support the tissue growth. TK6 cells were exposed for 24 h with the test materials prior to harvest.
(§2) 3D tissues were dissociated using human tumour dissociation kit (Miltenyl Biotec, Bergisch Gladbach, Germany), as per manufacturers’ instruction, with minor modifications. Individual 3D tissues cultured on microporous membranes were excised from the culture inserts and incubated for 15 min in cell recovery solution (Corning, Tewksbury, MA). The tissues were subsequently peeled off from the membrane with fine point forceps under stereo microscope (Leica Microsystems, Wetzlar, Germany). The peeled tissues were placed into gentleMACS C-tube (Miltenyi Biotech, Bergisch Gladbach, Germany) containing the enzyme mix described in the kit’s protocol. The tubes were then transferred into a gentleMACS octo dissociator with heater (Miltenyi Biotech, Bergisch Gladbach, Germany), and subjected to one cycle of ‘37C_m_LPDK_1’ program. Upon completion, the cell suspension was centrifuged at 1000 rpm for 5 min; the supernatant was removed and the pellet was resuspended in 2 mL of Hanks Balanced Salts Solution (HBSS). […] The proliferation of the 3D tissue was estimated through calculation of population doubling based on the dissociated cell number at the day 1, 6 and 11 after tissue revival. The cells were then (1) fixed for micronuclei scoring or (2) processed for subsequent experimentation.
Tissues were exposed to test substances, harvested and dissociated into single cell suspension as described above. Cell suspension samples were divided equally; half of the cell suspension sample was fixed in Carnoy’s solution with 3 fixation steps in methanol/acetic acid […], supplemented with formaldehyde at 1st fixation. The cell suspension was aged at least overnight at 4 °C to improve the quality of fixed cells. The remaining cells were incubated with 4% formaldehyde for 15 min, rinsed twice with 1 × PBS and stored in 4 °C. […] One thousand total cells were scored per microtissue to determine the frequency of MN and cytome. The percentage of MN and cytome at each concentration of test chemical was compared with the solvent control. The results were generated from three independent experiments. Each experiment consisted of a single microtissue per dose.

3D EpiIntestinal™ tissue [3] = details: human, 10 days
Method: as §1
as §2, with “revival.” for “revival. The cells were then (1) fixed for micronuclei scoring or (2) processed for subsequent experimentation.”

TK6 cells [4] = details: 24 h-exposure, dose not printed (Fig. 6b)
TK6 cells [5] = details: 24 h, comparable across all concentrations tested; DMSO control 0.7%
[6] = 50 ng/ml, apical, 10 days, Carnoy's fixative, mean ± SE
[7] = 250 ng/ml, apical, 10 days, Carnoy's fixative, mean ± SE
[8] = 500 ng/ml, apical, 10 days, Carnoy's fixative, mean ± SE

C=C1[C@@H](C)[C@H]2[C@H](Cc3ccccc3)NC(=O)[C@]23OC(=O)/C=C/[C@H](O)CCC[C@@H](C)C/C=C/[C@H]3[C@@H]1O [Cyt-B, cytochalasin B]
cells containing BN (binucleated) (3D EpiIntestinal™ tissue [1]): 8.1% and ~ 8.1% | mononuclear cells (3D EpiIntestinal™ tissue [1]): 91.9%

c1ccc2c(c1)cc1ccc3cccc4ccc2c1c34 [benzo(a)pyrene]
BN, binucleated cells (3D EpiIntestinal™ tissue [2]; human, 10 days, 6.25 μg/ml): 1.30 ± 0.12% | CC, condensed chromatin (3D EpiIntestinal™ tissue [2]; human, 10 days, 6.25 μg/ml): 0.13 ± 0.03% | KL, karyolysis (3D EpiIntestinal™ tissue [2]; human, 10 days, 6.25 μg/ml): 0.60 ± 0.25% | KR, karyorrhexis (3D EpiIntestinal™ tissue [2]; human, 10 days, 6.25 μg/ml): 5.59 ± 0.41 % | Mono, mononucleated cells (basal and differentiated) (3D EpiIntestinal™ tissue [2]; human, 10 days, 6.25 μg/ml): 89.96 ± 0.56% | PY, pyknosis (3D EpiIntestinal™ tissue [2]; human, 10 days, 6.25 μg/ml): 0.23 ± 0.03% | BN, binucleated cells (3D EpiIntestinal™ tissue [2]; human, 10 days, 12.5 μg/ml): 1.80 ± 0.38% | CC, condensed chromatin (3D EpiIntestinal™ tissue [2]; human, 10 days, 12.5 μg/ml): 0.37 ± 0.22% | KL, karyolysis (3D EpiIntestinal™ tissue [2]; human, 10 days, 12.5 μg/ml): 0.63 ± 0.23% | KR, karyorrhexis (3D EpiIntestinal™ tissue [2]; human, 10 days, 12.5 μg/ml): 7.27 ± 1.07% | Mono, mononucleated cells (basal and differentiated) (3D EpiIntestinal™ tissue [2]; human, 10 days, 12.5 μg/ml): 85.87 ± 1.30% | PY, pyknosis (3D EpiIntestinal™ tissue [2]; human, 10 days, 12.5 μg/ml): 0.40 ± 0.21% | BN, binucleated cells (3D EpiIntestinal™ tissue [2]; human, 10 days, 25 μg/ml): 0.99 ± 0.29% | CC, condensed chromatin (3D EpiIntestinal™ tissue [2]; human, 10 days, 25 μg/ml): 0.20 ± 0.10% | KL, karyolysis (3D EpiIntestinal™ tissue [2]; human, 10 days, 25 μg/ml): 0.40 ± 0.20% | KR, karyorrhexis (3D EpiIntestinal™ tissue [2]; human, 10 days, 25 μg/ml): 6.24 ± 0.06 % | Mono, mononucleated cells (basal and differentiated) (3D EpiIntestinal™ tissue [2]; human, 10 days, 25 μg/ml): 88.11 ± 1.01% | PY, pyknosis (3D EpiIntestinal™ tissue [2]; human, 10 days, 25 μg/ml): 0.56 ± 0.33% | doses with significant decreases in cell population (3D EpiIntestinal™ tissue [3]): ≥ 6.25 µg/mL

CO[C@@]12[C@H](COC(N)=O)C3=C(C(=O)C(C)=C(N)C3=O)N1C[C@@H]1N[C@@H]12 [mitomycin C]
population decline (TK6 cells [4]): 55%

[H]/N=C(/N)N/C(=N/[H])NCCc1ccccc1 [phenformin HCl, Phenformin HCl]
RICyt assay outcome (3D EpiIntestinal™ tissue [2]): inactive | prevalence of MN (3D EpiIntestinal™ tissue [2]; 10 days' exposure, DMSO control […]): ~ 1% | loss of viable cell populations (3D EpiIntestinal™ tissue [3]; 62.5 µg/ml): 40% | loss of viable cell populations (3D EpiIntestinal™ tissue [3]; 125 µg/ml): 45% | loss of viable cell populations (3D EpiIntestinal™ tissue [3]; 250 µg/ml): 60% | prevalence of MN in TK6 cells (TK6 cells [5]): ~ 0.6%

CC[C@]1(O)C[C@@H]2CN(CCc3c([nH]c4ccccc34)[C@@](C(=O)OC)(c3cc4c(cc3OC)N(C)[C@H]3[C@@](O)(C(=O)OC)[C@H](OC(C)=O)[C@]5(CC)C=CCN6CC[C@]43[C@@H]65)C2)C1 [vinblastine sulphate]
BN, binucleated cells (3D EpiIntestinal™ tissue [2]; [6]): 0.77 ± 0.12% | Buds, nuclear buds (3D EpiIntestinal™ tissue [2]; [6]): 0.63 ± 0.29% | CC, condensed chromatin (3D EpiIntestinal™ tissue [2]; [6]): 0.07 ± 0.03% | KL, karyolysis (3D EpiIntestinal™ tissue [2]; [6]): 1.23 ± 0.74% | KR, karyorrhexis (3D EpiIntestinal™ tissue [2]; [6]): 4.90 ± 0.63% | MN, micronuclei (3D EpiIntestinal™ tissue [2]; [6]): 2.71 ± 0.44% | Mono, mononucleated cells (basal and differentiated) (3D EpiIntestinal™ tissue [2]; [6]): 89.09 ± 1.25% | PY, pyknosis (3D EpiIntestinal™ tissue [2]; [6]): 0.6 ± 0.12% | BN, binucleated cells (3D EpiIntestinal™ tissue [2]; [7]): 0.86 ± 0.38% | Buds, nuclear buds (3D EpiIntestinal™ tissue [2]; [7]): 0.53 ± 0.28% | CC, condensed chromatin (3D EpiIntestinal™ tissue [2]; [7]): 0.15 ± 0.13% | KL, karyolysis (3D EpiIntestinal™ tissue [2]; [7]): 1.82 ± 1.01% | KR, karyorrhexis (3D EpiIntestinal™ tissue [2]; [7]): 4.75 ± 1.30% | MN, micronuclei (3D EpiIntestinal™ tissue [2]; [7]): 3.11 ± 0.36 % | Mono, mononucleated cells (basal and differentiated) (3D EpiIntestinal™ tissue [2]; [7]): 87.14 ± 2.07% | PY, pyknosis (3D EpiIntestinal™ tissue [2]; [7]): 1.66 ± 0.49% | BN, binucleated cells (3D EpiIntestinal™ tissue [2]; [8]): 0.94 ± 0.49% | Buds, nuclear buds (3D EpiIntestinal™ tissue [2]; [8]): 0.50 ± 0.16% | CC, condensed chromatin (3D EpiIntestinal™ tissue [2]; [8]): 0.17 ± 0.02 % | KL, karyolysis (3D EpiIntestinal™ tissue [2]; [8]): 1.79 ± 1.05% | KR, karyorrhexis (3D EpiIntestinal™ tissue [2]; [8]): 6.48 ± 2.52% | MN, micronuclei (3D EpiIntestinal™ tissue [2]; [8]): 3.46 ± 0.16 % | Mono, mononucleated cells (basal and differentiated) (3D EpiIntestinal™ tissue [2]; [8]): 84.89 ± 3.06% | PY, pyknosis (3D EpiIntestinal™ tissue [2]; [8]): 1.77 ± 0.77% | frequency of pyknotic and karyolytic cells (3D EpiIntestinal™ tissue [2]; apical, 10 days): increased | doses with significant decreases in cell population (3D EpiIntestinal™ tissue [3]): 0.5 µg/mL
